Where a name gives a salt, the structure may show the parent alone. One block for each compound: values may come before it.
Experiments:
[1] = system: drosophila Alzheimer's disease model wherein humanized A342 was overexpressed; test: Pavlovian olfactory memory test, rescue of memory impairment in drosophila AD model; type: in vivo
Description: A drosophila Alzheimer's disease model wherein humanized A342 was overexpressed (the model drosophila has significant learning and memory defects), was employed in the present invention to evaluate the effect of conjugate A04 in rescuing the learning and memory ability of the model drosophila.
Pavlovian olfactory memory platform was improved from the literatures (see Tully, T. et al., Classical conditioning and retention in normal and mutant Drosophila melanogaster. (1985) J. Comp. Physiol. A 157: 263-277; Tully, T. et al., Genetic dissection of consolidated memory in Drosophila. (1994) Cell 79: 35-47; Yin, J. C. et al., Induction of a dominant negative CREB transgene specifically blocks long-term memory in Drosophila. (1994) Cell 79: 49-58). The learning and memory test was performed in a behavior room having a constant temperature and humidity (25° C. and 70% relative humidity). The test comprises two stages:
training stage: about a hundred drosophilas were placed into a training tube covered with copper net inside, and the drosophilas sequentially smelt two odors (octanol (OCT) and methylcyclohexanol (MCH)). Each odor lasted for 1 minute, and after each of the odors, 45 seconds of fresh air were passed through. The drosophilas were subjected to 1 minute of electric shock only when it smelt the first odor. Such a set of procedures constituted a training cycle. In order to avoid the natural preference of the drosophilas for odors, one tube of the drosophilas smelt OCT first and then received an electric shock at each data point, while the other tube of the drosophilas smelt MCH first and then received an electric shock, and the mean value of the test results of the 2 tubes of drosophilas was a data point.
test stage: the drosophilas were immediately transferred to the selection point of a T-maze after the training, and then they were made to choose between the containers of the two odors within two minutes. After 2 minutes, the numbers of drosophilas in different containers were respectively counted, and the performance index (PI) was calculated. […]

[2] = system: APP/PS1 transgenic AD model mice; test: Morris water maze test, memory impairment of APP/PS1 transgenic AD model mice; type: in vivo; settings: 50 mg/kg/day by gastric gavage for 60 days, versus solvent-treated transgenic mice, FIG. 3
Description: In the present invention, conjugate A04 was administered by gastric gavage to APP/PS1 transgenic AD model mice, and then the effect of conjugate A04 on the memory impairment of transgenic AD model mice was detected through the classic Morris water maze test.
In this experiment, APP/PS1 double transgenic AD model mice, which developed Aβ deposition when they were about 6 months old, and had impairment on the space memory when they were about 7 months old, were employed. Therefore, in this experiment, the impairment on the space memory of the mice was further detected via the water maze test, and at the same time, whether conjugate A04 has a therapeutic or improving effect on the memory impairment was evaluated.
1) Identification of APP/PS1 double transgenic AD model mice: the mice's tail was snipped off, then the gene sequence of APP/PS1 in mice was identified by PCR. The wild type C57 (B6C3) mice were used as the negative control mice. […]
3) Morris water maze test: a mixture of water and fresh milk at a temperature of 19-20° C. was injected into a white round pool with a diameter of 120 centimeters daily in the test. […] The motion track and speed of the mice were automatically recorded by Anymaze and the matched camera. The average time of searching the platform in the four tests per day was recorded as the time for searching the platform on that day (latent period). […]

[3] = Pharmacokinetics in rats after gastric gavage, ATG concentration in plasma by LC-MS; type: in vivo, SD rats
Description: This test investigated the pharmacokinetics of arctigenin (ATG) and conjugate A04 in rats. The rats were administered by gastric gavage with ATG and A04, the whole blood sample was collected at various time points, the plasma was separated, and the concentration of ATG in plasma was determined by LC-MS.
Before the test, the rats were fasted for 12 hours, with free access to water, and were fed 2 hours after administration.
Blood sampling time points: 0.5, 1.0, 2.0, 4.0, 6.0, 8.0 and 12 h after administration by gastric gavage.
0.5 mL venous blood was taken from the posterior venous plexus of the rat's eyeball at the above set time points, put in a heparinized tube, centrifuged for 5 min at 11000 rpm to separate the plasma, and froze in a refrigerator at −20° C.
200 μL acetonitrile was added into 100 μL plasma samples, vortex mixed for 1 min, and centrifuged for 5 min at 11000 rpm; all the supernatant was taken out and put in a 10 mL test tube, dried in an airflow at 40° C., dissolved in 100 μL acetonitrile-water (1:9, v/v), and 10 μL was taken for UPLC/Q-TOF MS analysis.

SMILES: COc1ccc(C[C@H]2COC(=O)[C@@H]2Cc2ccc(OC(=O)NCCNC(=O)[C@@H](N)COC(=O)NC34CC5CC(C)(CC(C)(C5)C3)C4)c(OC)c2)cc1OC [Conjugate A04]
- rescue effect on the memory impairment of AD drosophilas compared with Mem ([1]; 100 μM, 7 days, FIG. 2): better rescue effect on the memory impairment of AD drosophilas than Mem
- latent period in the Morris water maze test [2]: significantly shorter than that of the transgenic mice treated with the solvent

SMILES: CC12CC3CC(C)(C1)CC(N)(C3)C2 [memantine hydrochloride]
- latent period in the Morris water maze test [2]: no significant change compared with that of the transgenic AD model mice

SMILES: CC12CC3CC(C)(C1)CC(N)(C3)C2 [Mem, memantine]
- performance index (PI) ([1]; AD drosophilas, 100 μM in 4% sucrose, 4 hours per day for 7 days, AD negative control PI 41, genetic control 19 higher): 55
- rescue effect ([1]; AD drosophilas, negative control group 0%, genetic control group 100%): more than 50%

- oral bioavailability ([3]; according to further investigations of the present inventors): poor
- ATG plasma concentration ([3]; rats, 20 mg/kg ATG by gastric gavage, lower detection limit 1.0 ng/ml): < 1.0 ng/mL
SMILES: COc1cc(C[C@H]2C(=O)OC[C@@H]2Cc2ccc(OC)c(OC)c2)ccc1O [ATG, arctigenin]
